Assay [1] has as its target T1, full length PDK1 (Homo sapiens, UniProt O15530).
T1 construct: Full-length human 3-Phosphoinositide Dependent protein Kinase-1; made in house; host or cells: baculovirus / Sf9 insect cells
T1 sequence (O15530 1-556): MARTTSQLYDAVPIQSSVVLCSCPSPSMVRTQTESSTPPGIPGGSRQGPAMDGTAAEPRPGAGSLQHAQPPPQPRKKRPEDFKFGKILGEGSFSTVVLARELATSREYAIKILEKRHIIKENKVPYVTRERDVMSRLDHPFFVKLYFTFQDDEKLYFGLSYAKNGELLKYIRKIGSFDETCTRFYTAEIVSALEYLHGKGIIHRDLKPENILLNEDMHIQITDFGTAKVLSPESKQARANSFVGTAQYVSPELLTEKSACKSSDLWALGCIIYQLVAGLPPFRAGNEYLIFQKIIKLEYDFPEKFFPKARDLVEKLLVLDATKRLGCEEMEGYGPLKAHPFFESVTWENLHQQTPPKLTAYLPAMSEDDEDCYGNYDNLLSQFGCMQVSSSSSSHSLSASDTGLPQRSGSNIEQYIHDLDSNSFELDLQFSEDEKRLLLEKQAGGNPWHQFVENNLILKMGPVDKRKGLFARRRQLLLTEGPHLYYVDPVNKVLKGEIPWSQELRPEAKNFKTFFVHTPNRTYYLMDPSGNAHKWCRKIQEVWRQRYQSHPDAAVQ
In words: PDK1 enzyme assays (substrate phosphorylation: LEADseeker scintillation proximity, TR-FRET, PDKtide). As to conditions: in at least one experimental run, read-out: IC50 against full length PDK1. Format: biochemical. Here is the method:
Substrate phosphorylation assays are carried out as follows:
Biotinylated-hAKT1: Human AKT1 (containing amino acid residues 136-480, as annotated by National Center for Biotechnology Information (NCBI) accession number AAL55732.1, with a MetLysLysHis6 N-terminal addition) is purified to >90% from lysate of baculovirus expression by Nickel Chelating ProBond resin (InVitrogen), Q-Sepharose Fast Flow, and Superdex 200 size exclusion chromatography. Biotinylation is achieved using EZ-Link Sulfo-NHS-LC Biotin (Pierce). Samples, in 25 mM HEPES, pH 7.5, 200 mM NaCl, 2 mM DTT, and 30% glycerol are stored at −80C until use.
(§1) Full-length human 3-Phosphoinositide Dependent protein Kinase-1 (hPDK1; National Center for Biotechnology Information (NCBI) accession number AAH39158.1 with a MetGlyHis6 N-terminal addition) is purified from baculovirus expression in Sf9 cells. Purity of approximately 80% is achieved by the use of chelation chromatography (Ni-NTA Superflow) and desalting columns. Samples, in 25 mM HEPES, 150 mM NaCl, 2.5 mM DTT, 0.05% Triton, 30% glycerol, pH 8.0, are stored at −80° C. until use.
The 39 amino acid biotinylated-PDKtide peptide Seq. ID No. 1: (Biotin-Ahx-[…]) was custom synthesized by 21st Century Biochemicals. […] The concentration was confirmed by quantitative amino acid analysis.
Scintillation Proximity (LEADseeker) Kinase Assay of Purified hPDK1:
Assays are performed in 384-well microtiter plates (Greiner, Catalog No. 784075). The reaction volume (10 μl) contains, in final concentrations, 25 mM MOPS (pH 7.5), 10 mM MgCl2, 50 mM KCl, 0.1 mg/ml BSA, 1 μM ATP, 3 uCi/ml ^33PγATP, 5 mM DTT, 1 mM CHAPS or 0.05% Tween20, 0.35 μM AKT1 biotinylated protein, and 10 nM hPDK1.
Compounds, titrated in DMSO, are evaluated at eleven concentrations ranging from 50 μM to 2 μM. […] Reactions are stopped after 3 hours at room temperature by the addition of 50 mM EDTA, 5 mg/ml LEADseeker beads (GE Healthcare) in PBS (10 ul). Beads are allowed to settle overnight, and samples are imaged on Viewlux (PerkinElmer).
(§2) The data for compound concentration responses were plotted as % Inhibition, calculated with the data reduction formula 100*(1−[(U1−C2)/(C1−C2)]), versus concentration of compound, where
(§3) Data were fitted to the curve described by:
TR-FRET Kinase Assay of Purified hPDK1:
Assays are performed in 384-well microtiter plates (Greiner, Catalog No. 784076).
As previously described for the Scintillation Proximity protocol, hPDK1 is pre-incubated (30 minutes at room temperature) with compounds before initiating phosphorylation of AKT1 by addition of substrate to the hPDK1 and compound mix. Reactions are stopped after 4-6 hours at room temperature by the addition to final concentrations of 0.02 M EDTA, 0.0875 μM Streptavidin APC (PerkinElmer), 0.03 μM AKT1 (phospho T308) antibody (Abcam Inc.), 0.00375 μM Lance Eu-labeled anti rabbit IgG Antibody (PerkinElmer). Antibody binding reaches equilibrium in 30 minutes before signal is read on an EnVision™ 2103 Multilabel Reader (PerkinElmer). APC Signals are normalized to Europium signal. Data processing is the same as described for the Scintillation Proximity assay with the exception of the generation of the “C2” control by addition of buffer without hPDK1 to control wells at t=0 instead of EDTA.
(§4) Scintillation Proximity (LEADseeker) Kinase Assay of Purified hPDK1 using Biotinylated-PDKtide Peptide:
(§5) Assays are performed in 384-well microtiter plates (Greiner, Catalog No. 784075). The reaction volume (10 μl) contains, in final concentrations, 25 mM MOPS (pH 7.5), 10 mM MgCl2, 50 mM KCl, 0.1 mg/ml BSA, 1 μM ATP, 3 uCi/ml ^33PγATP, 5 mM DTT, 0.5 mM CHAPS, 1 μM biotinylated-PDKtide peptide, and 0.5 nM hPDK1.
Compounds, titrated in DMSO, are evaluated at eleven concentrations ranging from 25 μM to 0.4 pM. […] Reactions are stopped after 4 hours at room temperature by the addition of 50 mM EDTA, 5 mg/ml LEADseeker beads (GE Healthcare) in PBS (10 ul).
A general note: In a scintillation proximity assay essentially only radioactivity close to the scintillant gives light.

The target in assay [2] is T1, full length PDK1. In words: Scintillation Proximity (LEADseeker) kinase assay of purified hPDK1 using biotinylated-PDKtide peptide. Type of assay: biochemical. As to conditions: in at least one experimental run; PDKtide substrate; read-out: IC50 against full length PDK1 using the PDKtide substrate assay. Here is the method:
as §1
The 39 amino acid biotinylated-PDKtide peptide Seq. ID No. 1: (Biotin-Ahx-[…]) was custom synthesized by 21st Century Biochemicals. The peptide was >95% pure and dissolved in HPLC grade water to give a final concentration of 1.1 mM. The concentration was confirmed by quantitative amino acid analysis.
as §4, §5
Compounds, titrated in DMSO, are evaluated at eleven concentrations ranging from 25 μM to 0.4 pM. […] No effect on activity relative to controls without DMSO is observed for hPDK1 at these DMSO amounts. hPDK1 is pre-incubated, 30 minutes at room temperature, with compounds before initiating phosphorylation of biotinylated-PDKtide peptide by addition of substrate to hPDK1/compound. Reactions are stopped after 4 hours at room temperature by the addition of 50 mM EDTA, 5 mg/ml LEADseeker beads (GE Healthcare) in PBS (10 ul). Beads are allowed to settle overnight, and samples are imaged on Viewlux (PerkinElmer).
as §2, §3
The results for each compound were recorded as pIC50 calculated as follows: […]

Assay [3] concerns AKT phosphorylation at T308 in PC-3 cells. Briefly: Phospho-AKT (T308) ELISA in PC3 cells. Type of assay: cell-based. The note with it: Homo sapiens, 6 hours compound treatment, in at least one experimental run, read-out: IC50 for inhibition of AKT phosphorylation at T308 in PC-3 cells. Here is the method: Phospho-AKT (S473, T308, Total AKT) and phospho-RSK ELISA
PC3 cells (ATCC, Manassas, Va.) were plated in 96-well flat bottom plates (Corning, Lowell, Mass.) at a density of 15,000 cells/well in RPMI 1640 medium supplemented with 10% FBS. Cells were incubated at 37° C., 5% CO2 for 18-20 h. Compounds (dissolved in 100% DMSO) were diluted in an 11-point 3-fold dilution in DMSO. Compound dilution stocks were further diluted in RPMI 1640 with 10% FBS and added to each cell well. DMSO without compound was used in control wells. Final concentration of DMSO in each well was 0.15%. After 6 hours at 37° C. cells were washed with cold PBS (without calcium or magnesium) and lysed in lysis buffer (Meso Scale Discovery, Gaithersburg, Md.) supplemented with 1 protease inhibitor tablet/10 ml (Roche, Indianapolis, Ind.), 10 mM NaF, and 200 μl/10 ml Sigma phosphatase inhibitor 1 & 2 (Sigma Aldrich, St Louis, Mo.) for 30 min at 4° C. All washes were performed on a Bio Tek ELx405 plate washer (Bio Tek Instruments, Winooski, Vt.).
ELISA plates (Meso Scale Discovery; AKT Duplex, cat. N41100B-1; phospho AKT, cat. N411CAB-1; RSK, cat. N41ZB-1) were prepared by the addition of blocking buffer (3% Blocker A diluted in wash buffer (Meso Scale Discovery) for AKT duplex assay and phospho AKT assays; 5% Blocker A/1% Blocker B in Tris-buffered saline for RSK) for 1 hour and washed with wash buffer. Lysates were transferred to assay wells and incubated overnight at 4° C. Following washing with wash buffer, detection buffer (1% Blocker A in wash buffer for AKT duplex and phospho AKT or 1% Blocker A in TBS for RSK) with appropriate antibodies was added. Detection of AKT duplex and phospho AKT was carried out using a sulfo-tagged detection antibodies (Meso Scale Discovery). Detection of phospho-RSK was carried out sequentially with anti phospho-RSK1 (S221)/RSK2 (S227) (R&D systems, Minneapolis, Minn., cat. AF892) and goat anti-rabbit sulfo-tag antibody (cat R32AB-1; Meso Scale Discovery). Plates were incubated for 1 hour at room temperature and washed with wash buffer. Plates were read on a SECTOR™ Imager 6000 (Meso Scale Discovery) using Workbench software (Meso Scale Discovery) following addition of read buffer (Meso Scale Discovery) to each well. For analysis, phospho-AKT (S473) signals were normalized to total AKT, while phospho-AKT (T308) and phospho-RSK signals were analyzed without normalization. All values were expressed as percent of the DMSO-treated controls. IC50s were determined from inhibition curves using XLfit4 software (IDBS, Guildford, UK).
For orientation: In an ELISA, binding on a coated surface is turned into a signal by an enzyme label.

Usually IC50 stands for the midpoint of a concentration-inhibition curve. For `Nc1nc(NC2(Cc3ccccc3)CC2)cc(-c2ccc3c(N)n[nH]c3c2)n1` [Example 61, 6-(3-Amino-1H-indazol-6-yl)-N^4-[1-(phenylmethyl)cyclopropyl]-2,4-pyrimidinediamine], the concentration for half-maximal inhibition (IC50) on full length PDK1 [1] is less than 0.1 µM; at full length PDK1 [2] it was 0.01 µM.
The like results for `CC[C@@H]1CO[C@H](C(=O)NC2CCCCC2)CN1c1cc(-c2ccc3c(N)n[nH]c3c2)nc(N)n1` [Example 173, (2S,5R)-4-[2-Amino-6-(3-amino-1H-indazol-6-yl)-4-pyrimidinyl]-N-cyclohexyl-5-ethyl-2-morpholinecarboxamide] were, in that order, less than 0.02 µM and 0.0079 µM.
For `CC[C@@H]1COCCN1c1cc(-c2ccc3c(N)n[nH]c3c2)nc(NC)n1` [Example 177, 6-[6-[(3R)-3-Ethyl-4-morpholinyl]-2-(methylamino)-4-pyrimidinyl]-1H-indazol-3-amine], the IC50 was less than 0.15 µM on full length PDK1 [1] and 0.025 µM on full length PDK1 [2].
For `COc1cc(-c2cc(N3C[C@H](C)C[C@@H](NC(=O)OC(C)(C)C)C3)nc(N)n2)cc2[nH]nc(N)c12` [Example 214, 1,1-Dimethylethyl((3R,5R)-1-[2-amino-6-[3-amino-4-(methyloxy)-1H-indazol-6-yl]-4-pyrimidinyl]-5-methyl-3-piperidinyl)carbamate], the IC50 is less than 0.05 µM on full length PDK1 [1] and 0.002 µM at full length PDK1 [2].
Turning to `C[C@@H]1C[C@@H](N(C)C(=O)OC(C)(C)C)CN(c2cc(-c3ccc4c(N)n[nH]c4c3)nc(N)n2)C1` [Example 221, 1,1-Dimethylethyl{(3R,5R)-1-[2-amino-6-(3-amino-1H-indazol-6-yl)-4-pyrimidinyl]-5-methyl-3-piperidinyl}methylcarbamate], the IC50 was less than 1 µM in assay [3] and less than 0.05 µM on full length PDK1 [1].

The values above are taken from US8697685B2, “Chemical compounds” (GlaxoSmithKline LLC, priority 2008, dated 2014).
